Laboratory results published in patent US7652010B2 (priority 2004, dated 2010).

SMILES	melting point
Nc1ccc(C#Cc2ccc(OC3CN4CCC3CC4)nn2)cc1 (racemic) [Compound C8, (±)-4-[6-(1-Aza-bicyclo[2.2.2]oct-3-yloxy)-pyridazin-3-ylethynyl]-phenylamine free base]	212 to 220 °C
CC(=O)Nc1ccc(C#Cc2ccc(OC3CN4CCC3CC4)nn2)cc1 (racemic) [Compound C6, (±)-N-{4-[6-(1-Aza-bicyclo[2.2.2]oct-3-yloxy)-pyridazin-3-ylethynyl]-phenyl}-acetamide free base]	169.5 to 175.4 °C
C(#Cc1ccc(OC2CN3CCC2CC3)cc1)c1ccccc1.O=C(O)/C=C/C(=O)O (racemic)	126.9 to 127.3 °C
Nc1cccc(C#Cc2ccc(OC3CN4CCC3CC4)nn2)c1 (racemic) [Compound C7, (±)-3-[6-(1-Aza-bicyclo[2.2.2]oct-3-yloxy)-pyridazin-3-ylethynyl]-phenylamine free base]	152.4 to 158.1 °C
C(#Cc1ccc(OC2CN3CCC2CC3)nn1)c1ccsc1.O=C(O)/C=C/C(=O)O (racemic) [Compound C10, (±)-3-(6-Thiophen-3-ylethynyl-pyridazin-3-yloxy)-1-aza-bicyclo[2.2.2]octane fumaric acid salt]	133.9 to 141.6 °C
